Source: patent publication US9193746B2, “Luminescent metal complexes and associated technology” (BIOTIUM, INC., priority 2006, dated 2015)

System: electrophoretically separated proteins (Precision Plus Protein Standard) in a SDS-PAGE gel
Experiment: Detection of electrophoretically separated proteins in a SDS-PAGE gel by luminescent staining
Conditions: for Staining of proteins in gel (yes/no): Example 18, FIG. 4: 1.5 μM complex, 30% MeOH, 14% acetic acid, room temperature, 90 minutes
Protocol: A gel preparation procedure is now described. Five μL of an unstained Precision Plus Protein Standard (Catalog No. 161-0363 from Bio-Rad Laboratories (Hercules, Calif.) (hereinafter, “Bio-Rad”)) were separated on the left column of a polyacrylamide pre-cast gel (Catalog No. 161-1176, a Ready Gel from Bio-Rad) in running buffer containing 20 mM glycine, 2.5 mM Tris and 0.1% SDS, using a standard SDS-PAGE procedure. Five 5 μL of the same standard diluted five times were separated on the right column of the polyacrylamide pre-cast gel under the same conditions.
The foregoing procedure was used to prepare one gel, which was further processed as described below using a particular staining solution. Separately, the same procedure was used to prepare another gel, which was further processed as described below using a different staining solution.
At the end of each of these periods, the gel was taken out of the solution, illuminated, and photographed, and if a further period remained, returned to the solution until the end of that further period. A UV transilluminator (300-nm wavelength) was used to illuminate the gel and Polaroid 667 black-and-white film was used to photograph the gel. The gel was not destained before being photographed.
A gel was prepared according to the gel preparation procedure described in connection with Example 15. The gel was then processed as now described. The gel was placed in a fixation solution comprising 50% MeOH and 7% acetic acid for 30 minutes to fix the gel. […] The gel was not destained before being photographed.
A gel was prepared according to the gel preparation procedure described in connection with Example 15. The gel was then processed as now described. The gel was placed in a fixation solution comprising 50% MeOH and 7% acetic acid for 1 hour to fix the gel. […] The gel was not destained before being photographed.
Three gels were prepared, each according to the gel preparation procedure described in connection with Example 15. One of the gels was stained using a staining solution comprising 1.5 μM of [Ru(bpy)3]Cl2 (Aldrich, Milwaukee, Wis.), wherein “bpy” is unsubstituted 2,2′-bipyridine, 30% MeOH and 14% acetic acid. Another of the gels was stained using a staining solution comprising 1.5 μM of [Ru(1,10-phenanthroline)3]Cl2 (Aldrich, Milwaukee, Wis.), 30% MeOH and 14% acetic acid. […] Each gel was stained by incubating it in the appropriate staining solution at room temperature for 90 minutes, whereupon each gel was taken out of the staining solution, illuminated and photographed in the manner described in connection with Example 15. No gel was destained before being photographed.

Compound	Staining of proteins in gel (yes/no) (not destained)	Protein staining in gel (sensitivity, background) (Example 17, FIG. 3: fixed gel, 2 μM complex, 1% ethanol in H2O, overnight, not destained)	Protein staining compared with SYPRO Ruby stain (Example 17, FIG. 3 versus FIG. 1, without destaining)
[Cl][Ru][Cl].c1cnc2c(c1)ccc1cccnc12.c1cnc2c(c1)ccc1cccnc12.c1cnc2c(c1)ccc1cccnc12 [[Ru(1,10-phenanthroline)3]Cl2]	failed to stain proteins	–	–
Re[(bathocuproin disulfonate)(CO)3(4-phenylpyridine)]^−Na^+ [Complex No. 2]	–	good sensitivity and relatively low background	performing at least as well as, if not outperforming, SYPRO Ruby
[Cl][Ru][Cl].c1ccc(-c2ccccn2)nc1.c1ccc(-c2ccccn2)nc1.c1ccc(-c2ccccn2)nc1 [[Ru(bpy)3]Cl2]	failed to stain proteins	–	–
